Patent US10640767B2, “Assay for exo-site binding molecules” (President and Fellows of Harvard College, priority 2016, dated 2020)

Biological target: T1, Recombinant His6-tagged IDE (Homo sapiens, UniProt P14735)
T1 construct: made in house; host or cells: E. coli Rosetta 2 (DE3) pLysS, plasmid pTrcHis-A
T1 sequence (P14735 42-1019): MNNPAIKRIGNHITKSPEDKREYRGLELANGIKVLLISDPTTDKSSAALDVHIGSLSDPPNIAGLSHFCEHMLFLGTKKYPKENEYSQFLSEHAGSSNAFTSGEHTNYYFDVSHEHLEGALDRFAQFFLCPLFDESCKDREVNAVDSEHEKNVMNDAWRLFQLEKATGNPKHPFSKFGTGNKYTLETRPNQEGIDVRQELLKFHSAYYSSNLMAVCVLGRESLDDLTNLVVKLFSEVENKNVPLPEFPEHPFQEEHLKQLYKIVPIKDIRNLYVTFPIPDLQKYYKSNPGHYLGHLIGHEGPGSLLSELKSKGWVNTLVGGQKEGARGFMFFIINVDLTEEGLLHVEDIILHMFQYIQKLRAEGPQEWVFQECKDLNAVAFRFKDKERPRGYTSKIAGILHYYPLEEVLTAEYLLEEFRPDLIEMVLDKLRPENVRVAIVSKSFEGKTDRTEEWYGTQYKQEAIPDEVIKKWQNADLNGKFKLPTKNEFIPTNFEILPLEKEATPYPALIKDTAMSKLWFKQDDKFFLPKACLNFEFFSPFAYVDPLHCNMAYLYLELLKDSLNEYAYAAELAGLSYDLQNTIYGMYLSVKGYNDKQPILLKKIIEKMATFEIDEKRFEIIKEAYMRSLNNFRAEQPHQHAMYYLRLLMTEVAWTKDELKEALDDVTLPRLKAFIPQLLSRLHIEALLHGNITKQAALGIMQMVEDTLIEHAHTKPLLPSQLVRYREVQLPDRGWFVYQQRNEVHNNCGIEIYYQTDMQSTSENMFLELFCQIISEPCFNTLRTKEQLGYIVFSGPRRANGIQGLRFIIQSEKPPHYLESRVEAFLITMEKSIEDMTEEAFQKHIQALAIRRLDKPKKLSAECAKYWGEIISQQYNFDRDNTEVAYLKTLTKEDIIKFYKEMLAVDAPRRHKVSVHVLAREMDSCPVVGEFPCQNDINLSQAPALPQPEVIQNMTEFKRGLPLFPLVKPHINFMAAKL
Experiment: IDE protease activity assay with fluorogenic peptide substrate Mca-RPPGFSAFK(Dnp)-OH
Type: biochemical
Conditions: inhibitor 20 μM final; purified recombinant His6-tagged IDE proteins
Procedure: Recombinant His6-tagged IDE and IDE-A479L were purified by Ni(II)-affinity chromatography (IMAC sepharose beads, GE Healthcare®) according to the manufacturer's instructions. The cell pellets were resuspended in pH 8.0 buffer containing 50 mM phosphate, 300 mM NaCl, 10 mM imidazole, 1% Triton X-100 and 1 mM tris(2-carboxyethyl)phosphine hydrochloride (TCEP), and were lysed by probe sonication for 4 min at <4° C., followed by clearing of cell debris by centrifugation at 10,000 g for 25 min at 4° C. The supernatant was incubated with Ni(II)-doped IMAC resin (2 mL) for 3 h at 4° C. The resin was washed twice with the cell resuspension/lysis buffer, and three times with pH 8.0 buffer containing 50 mM phosphate, 300 mM NaCl, 50 mM imidazole and 1 mM TCEP. Elution was performed in 2 mL aliquots by raising the imidazole concentration to 250 mM and subsequently to 500 mM in the previous buffer. The fractions were combined and the buffer was exchanged to the recommended IDE buffer (R&D) using spin columns with 100 KDa molecular weight cut off membranes (Millipore). Protein yields were typically ˜10 μg/L, and >90% purity based on gel electrophoresis analysis (Coomassie stained).

SMILES: NCCCC[C@@H]1NC(=O)/C=C/C(=O)N[C@H](C(N)=O)CCCCNC(=O)[C@@H](Cc2ccc(C(=O)c3ccccc3)cc2)NC(=O)[C@H](CC2CCCCC2)NC1=O [6bK]
- IDE-specific protease activity as assessed by inhibition of degradation of peptide substrate Mca-RPPGFSAFK(Dnp)-OH: > 95%
